Test results from PMC8142146 (Bioorganic chemistry, 2020).

Columns and labels:
Type in all cases: biochemical
[1] = target: PARP1 (Homo sapiens, UniProt P09874); experiment: BPS PARP1 Chemiluminescent Activity Assay Kit
[2] = target: T1, TNKS2 (PARP5B) (Homo sapiens, UniProt Q9H2K2); experiment: PARP-isoform screening, Chemiluminescent Activity Assay Kit; settings: Figure 5
T1 sequence (Q9H2K2 1-1166): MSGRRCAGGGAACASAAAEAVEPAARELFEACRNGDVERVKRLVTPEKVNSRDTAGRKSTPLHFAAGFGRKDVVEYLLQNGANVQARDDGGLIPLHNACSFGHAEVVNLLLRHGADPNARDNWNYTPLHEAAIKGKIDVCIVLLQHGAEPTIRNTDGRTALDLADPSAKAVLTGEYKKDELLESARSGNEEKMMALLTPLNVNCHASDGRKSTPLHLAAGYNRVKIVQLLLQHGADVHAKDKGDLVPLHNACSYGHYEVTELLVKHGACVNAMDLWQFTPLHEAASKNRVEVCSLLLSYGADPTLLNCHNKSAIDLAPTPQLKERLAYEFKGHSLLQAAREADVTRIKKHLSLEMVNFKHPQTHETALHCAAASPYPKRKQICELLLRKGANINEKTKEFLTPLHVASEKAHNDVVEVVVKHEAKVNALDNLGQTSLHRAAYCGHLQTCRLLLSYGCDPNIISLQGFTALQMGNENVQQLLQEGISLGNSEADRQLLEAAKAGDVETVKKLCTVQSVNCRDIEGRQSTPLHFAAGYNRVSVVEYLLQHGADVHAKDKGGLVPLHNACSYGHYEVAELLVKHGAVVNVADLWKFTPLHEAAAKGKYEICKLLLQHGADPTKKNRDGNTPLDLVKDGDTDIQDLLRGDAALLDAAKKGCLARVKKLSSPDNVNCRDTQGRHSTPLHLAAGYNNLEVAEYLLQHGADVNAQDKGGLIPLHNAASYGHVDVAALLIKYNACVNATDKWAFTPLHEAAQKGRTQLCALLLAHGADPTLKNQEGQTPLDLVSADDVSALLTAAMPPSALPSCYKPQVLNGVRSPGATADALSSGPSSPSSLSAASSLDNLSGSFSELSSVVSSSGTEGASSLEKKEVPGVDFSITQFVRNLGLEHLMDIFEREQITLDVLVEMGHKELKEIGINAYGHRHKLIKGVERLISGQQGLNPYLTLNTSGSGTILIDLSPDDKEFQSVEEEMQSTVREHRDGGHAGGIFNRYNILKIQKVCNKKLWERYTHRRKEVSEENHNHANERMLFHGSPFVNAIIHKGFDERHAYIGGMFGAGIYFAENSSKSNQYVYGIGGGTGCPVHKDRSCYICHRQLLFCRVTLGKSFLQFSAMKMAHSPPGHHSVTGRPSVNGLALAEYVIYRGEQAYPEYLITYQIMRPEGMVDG

[3] = target: T2, PARP10 (Homo sapiens, UniProt Q53GL7); experiment: as above; settings: Figure 5
T2 sequence (Q53GL7 1-1025): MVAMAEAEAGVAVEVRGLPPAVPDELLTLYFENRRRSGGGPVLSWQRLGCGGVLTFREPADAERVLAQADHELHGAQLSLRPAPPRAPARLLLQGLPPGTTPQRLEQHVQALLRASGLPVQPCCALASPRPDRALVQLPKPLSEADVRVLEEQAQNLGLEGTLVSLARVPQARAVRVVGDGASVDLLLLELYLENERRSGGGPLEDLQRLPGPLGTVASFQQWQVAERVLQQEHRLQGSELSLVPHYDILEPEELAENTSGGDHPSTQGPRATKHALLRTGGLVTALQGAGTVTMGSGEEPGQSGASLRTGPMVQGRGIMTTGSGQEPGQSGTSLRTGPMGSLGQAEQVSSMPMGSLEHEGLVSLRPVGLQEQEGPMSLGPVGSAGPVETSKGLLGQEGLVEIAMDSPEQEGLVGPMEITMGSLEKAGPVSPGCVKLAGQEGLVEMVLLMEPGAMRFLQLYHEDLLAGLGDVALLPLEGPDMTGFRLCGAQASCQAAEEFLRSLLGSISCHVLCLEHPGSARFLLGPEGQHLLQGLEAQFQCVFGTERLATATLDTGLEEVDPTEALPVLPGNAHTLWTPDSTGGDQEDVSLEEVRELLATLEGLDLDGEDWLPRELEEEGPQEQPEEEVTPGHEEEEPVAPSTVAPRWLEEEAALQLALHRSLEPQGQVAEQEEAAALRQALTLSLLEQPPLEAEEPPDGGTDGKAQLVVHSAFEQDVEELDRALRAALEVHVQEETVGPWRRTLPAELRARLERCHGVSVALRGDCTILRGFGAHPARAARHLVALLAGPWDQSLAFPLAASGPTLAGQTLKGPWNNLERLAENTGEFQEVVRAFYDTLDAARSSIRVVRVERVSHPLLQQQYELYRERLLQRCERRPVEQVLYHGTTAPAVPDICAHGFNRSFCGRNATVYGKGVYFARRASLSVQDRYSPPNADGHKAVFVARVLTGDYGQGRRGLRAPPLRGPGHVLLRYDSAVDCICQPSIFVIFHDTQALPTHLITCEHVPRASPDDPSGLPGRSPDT

Chain of PARP1 (P09874 whole entry, canonical isoform): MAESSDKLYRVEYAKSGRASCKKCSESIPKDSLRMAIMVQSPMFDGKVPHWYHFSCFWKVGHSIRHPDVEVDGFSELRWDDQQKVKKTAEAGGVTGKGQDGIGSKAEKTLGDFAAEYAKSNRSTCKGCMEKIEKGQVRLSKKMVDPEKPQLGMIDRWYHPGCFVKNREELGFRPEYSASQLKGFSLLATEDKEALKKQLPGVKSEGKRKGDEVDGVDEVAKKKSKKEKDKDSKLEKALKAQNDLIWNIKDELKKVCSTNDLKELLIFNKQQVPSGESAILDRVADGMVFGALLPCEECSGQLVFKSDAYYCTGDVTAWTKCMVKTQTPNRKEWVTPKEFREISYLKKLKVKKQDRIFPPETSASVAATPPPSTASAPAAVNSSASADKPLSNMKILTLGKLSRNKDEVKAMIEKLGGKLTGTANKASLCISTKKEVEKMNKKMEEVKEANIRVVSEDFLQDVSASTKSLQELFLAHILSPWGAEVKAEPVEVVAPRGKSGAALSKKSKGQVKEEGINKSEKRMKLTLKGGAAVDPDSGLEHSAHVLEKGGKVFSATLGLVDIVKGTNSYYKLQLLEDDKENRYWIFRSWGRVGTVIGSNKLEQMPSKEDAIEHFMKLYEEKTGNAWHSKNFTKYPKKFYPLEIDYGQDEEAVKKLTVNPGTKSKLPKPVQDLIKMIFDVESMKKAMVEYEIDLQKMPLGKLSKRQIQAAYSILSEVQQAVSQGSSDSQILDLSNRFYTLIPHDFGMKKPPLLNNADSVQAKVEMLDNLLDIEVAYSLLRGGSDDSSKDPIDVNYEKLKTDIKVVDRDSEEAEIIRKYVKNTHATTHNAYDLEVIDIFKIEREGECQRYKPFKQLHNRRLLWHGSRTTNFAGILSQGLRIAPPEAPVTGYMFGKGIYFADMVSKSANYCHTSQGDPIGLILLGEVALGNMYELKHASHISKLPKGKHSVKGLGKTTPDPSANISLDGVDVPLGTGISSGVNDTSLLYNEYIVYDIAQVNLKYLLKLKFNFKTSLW

IC50 [1]: 82 ± 45 nM
TNKS2 inhibition [2]: substantially inhibited
PARP10 inhibition [3]: did not interfere
SMILES: NC(=O)c1cccc2c1O/C(=C\c1ccc(O)cc1)C(=O)N2 [Compound 49, (Z)-2-(4-Hydroxybenzylidene)-3-oxo-3,4-dihydro-2H-benzo[b][1,4]oxazine-8-carboxamide]
